Reference: patent US20220242874A1, “CAMPTOTHECIN DERIVATIVES” (SUN PHARMA ADVANCED RESEARCH COMPANY LIMITED, priority 2019, published 2022)
Where a name gives a salt, the structure may show the parent alone. Read-outs that look alike come from different tables or passages of the source.

Tests used:
MDA-MB-231 cells = assay: In-vitro cancer cell growth inhibition assay (MTT); assay type: cell-based; conditions: Homo sapiens, MDA-MB-231, 96 h, read-out: IC50 (nM) MDA-MB-231
Experimental: (§1) The compounds of the present invention were evaluated for their ability to inhibit the growth of various cell line models of small cell lung cancer (SCLC), colon cancer, pancreatic cancer and triple negative breast cancer (TNBC) in-vitro. Details of the cell lines and their respective complete growth media are described in Table 3. The growth inhibition assay was carried out as described below. Briefly, cells in complete growth media were seeded in 96-well plates at appropriate cell densities (seeding density details described in Table 3) and incubated at 37° C., 5% CO2 (3-4 hours for NCI-H526, NCI-H69, NCI-H187 and overnight for the rest of the cells). Serial dilutions of test compound in DMSO were added to the cells while maintaining the final DMSO concentration of 0.4%-0.5% in the well. Plates were incubated for 96-144 h (the exact duration for each assay is described in Table 3) at 37° C., 5% CO2. Subsequently, MTT (final concentration 0.5 mg/mL in media) was incubated with the cells at 37° C., 5% CO2 for 4-5 hours. The formazan crystals were dissolved overnight at 37° C., 5% CO2 using 100 μL extractant (10% SDS in 0.01N HCl) and quantified using absorbance at 570 nm with reference wavelength 630 nm. Growth inhibition was represented as percent decrease in absorbance compared to vehicle treated cells.

MDA-MB-468 cells = assay: In-vitro cancer cell growth inhibition assay (MTT); assay type: cell-based; conditions: Homo sapiens, MDA-MB-468, 96 h, read-out: IC50 (nM) MDA-MB-468
Experimental: as §1

MX-1 cells = assay: In-vitro cancer cell growth inhibition assay (MTT); assay type: cell-based; conditions: Homo sapiens, MX1, 144 h, read-out: IC50 (nM) MX-1
Experimental: as §1

[1] = Comparison of solubility in water; assay type: physicochemical
Text: Comparison of Solubility of Compound I.4 in Water with SN-38

[2] = In-vitro stability in mice tumor lysate; conditions: for % Remaining in tumor lysate: spiked 2000 ng/mL, pH 5.5, 37° C.
Experimental: (§2) Aliquot of 100 μL were taken from stability samples in pre-labelled micro-centrifuge tubes. 5 μL of cetirizine working internal standard (5 μg/mL) was added to each tube and vortexed well. 1 mL acetonitrile was added to each tube and vortexed well and then centrifuge at 10000 RPM for 5 min at room temperature. The supernatant was collected in ria vials and evaporated to dryness under nitrogen stream. The samples were reconstituted in 1 mL of 0.1% formic acid in water: acetonitrile 30:70 v/v. The prepared samples were analyzed using LC-MS/MS method. Quantification was done against SN-38 standard, prepared at 2000 ng/mL concentration. SN-38 standard prepared by spiking 5 μL of SN-38 working standard to 95 μL of blank mice tumor homogenate to achieve 2000 ng/mL concentration and vortexed well and processed as described.
(§3) LC-MS/MS Method: Chromatographic separation was achieved on Inertsil C8-3 (50×4.6 mm, 5 μ) with a flow rate of 250 μL/min and an injection volume of 10 μL. The sample cooler was maintained at 10° C. The column oven temperature was set to 40° C. The mobile phase consisted of 0.1% formic acid in Milli Q water and acetonitrile in the ratio of 30:70 v/v, respectively. […] The overall chromatographic run time was 4.0 minutes.
(§4) Detection was performed by tandem mass spectrometry (TSQ Quantum, Discovery MAX, Thermo Electron Corporation) and peak areas were integrated using LCquan software version 2.9 QF1.
(§5) 0 hr standard area was considered as 100% for calculation.

NCI H187 cells = assay: In-vitro cancer cell growth inhibition assay (MTT); assay type: cell-based; conditions: Homo sapiens, NCI-H187, read-out: IC50 (nM) NCI H187
Experimental: as §1, with “Plates were incubated for 96-144 h (the exact duration for each assay is described in Table 3) at 37° C., 5% CO2.” left out

PANC-1 cells = assay: In-vitro cancer cell growth inhibition assay (MTT); assay type: cell-based; conditions: Homo sapiens, PANC-1, 96 h, read-out: IC50 (nM) PANC-1
Experimental: as §1

NCI H526 cells = assay: In-vitro cancer cell growth inhibition assay (MTT); assay type: cell-based; conditions: Homo sapiens, NCI-H526, 96-144 h, read-out: IC50 (nM) NCI H526
Experimental: as §1

HT-29 cells = assay: In-vitro cancer cell growth inhibition assay (MTT); assay type: cell-based; conditions: Homo sapiens, HT-29, 96 h, read-out: IC50 (nM) HT-29
Experimental: as §1

NCI H69 cells = assay: In-vitro cancer cell growth inhibition assay (MTT); assay type: cell-based; conditions: Homo sapiens, NCI-H69, 144 h, read-out: IC50 (nM) NCI H69
Experimental: as §1

[3] = Buffer stability (phosphate buffer, 37° C., HPLC); assay type: physicochemical; conditions: 100 μg/ml (footnote *)
Experimental: The representative compounds were first dissolved in a minimum quantity of DMSO in a volumetric flask and diluted up to the mark with diluent (water: acetonitrile 30:70). […] After the elapsed time, the buffer samples were diluted 4 times with acetonitrile and injected into an HPLC system. Quantification of representative compounds was done by HPLC.
HPLC method: Chromatographic separation was achieved on a Hypersil BDS C18 (100×4.6 mm, 5 μ) column using 25 mM KH2PO4 buffer (pH 7 with TEA): acetonitrile, 90:10 v/v as mobile phase-A and 25 mM KH2PO4 buffer (pH 7 with TEA): acetonitrile 30:70 v/v as mobile phase-B. The gradient started with initially 5% B to 45% B in 10 mins followed by 80% B in 22 mins and held up to 25 mins and then returned to initial conditions at 26 mins and continued up to 30 mins. The injection volume was kept 10 μL and the flow rate was kept at 1.0 mL/min. The UV-Vis Detector was set at 220 nm, the column oven was set at 37° C. and the sample cooler was set at […]. Total chromatographic runtime was 30 min.

[4] = Camptosar Prescribing Information; cited from earlier work
[5] = mouse, 2000 ng/mL, pH 5.5
Experimental: as §2, §3, §4, §5

CCc1c2c(nc3ccc(O)cc13)-c1cc3c(c(=O)n1C2)COC(=O)[C@@]3(CC)OC(=O)OCCSSCCOC(=O)N(C)c1ccc(N2CCN(C)CC2)cc1 [Compound I.4, 2-(2-{N-Methyl-N-[4-(4-methylpiperazin-1-yl)phenyl]carbamoyloxy}ethyldisulfanyl)ethyl [(4S)-4,11-diethyl-3,4,12,14-tetrahydro-9-hydroxy-1H-pyrano[3′,4′:6,7]indolizino[1,2-b]quinoline-3,14-(4H,12H)dione-4-yl] carbonate dihydrochloride]
IC50 (MDA-MB-231 cells): 129 nM | IC50 (MDA-MB-468 cells): 8.2 nM | IC50 (MX-1 cells): 6.9 nM | Solubility in water [1]: Solubility: 100 mg/11 ml in water. | % Remaining in tumor lysate ([2]; 0 hr): 100.0% | % Remaining in tumor lysate ([2]; 1 hr): 0.0% | % Remaining in tumor lysate ([2]; 2 hr): 0.0% | % Remaining in tumor lysate ([2]; 4 hr): 0.0% | % Remaining in tumor lysate ([2]; 6 hr): 0.0% | % Remaining in tumor lysate ([2]; 8 hr): 0.0% | time after incubation until cleaved to give active SN-38 ([2]; tumor lysate, 37° C.): ≤ 1 h

CCc1c2c(nc3ccc(O)cc13)-c1cc3c(c(=O)n1C2)COC(=O)[C@@]3(CC)OC(=O)OCCSSCCNC(=O)c1ccc(N2CCN(C)CC2)cc1 [Compound I.5, 2-(2-{4-[4-Methylpiperazin-1-yl]benzoylamino}ethyldisulfanyl) ethyl [(4S)-4,11-diethyl-3,4,12,14-tetrahydro-9-hydroxy-1H-pyrano[3′,4′:6,7]indolizino[1,2-b]quinoline-3,14-(4H,12H)dione-4-yl]carbonate dihydrochloride]
IC50 (NCI H187 cells): 0.77 nM | IC50 (MDA-MB-231 cells): 119 nM | IC50 (PANC-1 cells): 910 nM | IC50 (NCI H526 cells): 2.06 nM | IC50 (MDA-MB-468 cells): 9.3 nM | IC50 (MX-1 cells): 4.6 nM | IC50 (HT-29 cells): 48.3 nM | IC50 (NCI H69 cells): 1.3 nM | % of Unconverted Compounds of Formula I ([3]; pH 4.7, 0 hr): 100% | % of Unconverted Compounds of Formula I ([3]; pH 4.7, 2 hr): 82.5% | % of Unconverted Compounds of Formula I ([3]; pH 4.7, 4 hr): 86.3% | % of Unconverted Compounds of Formula I ([3]; pH 4.7, 6 hr): 79.9% | % of Unconverted Compounds of Formula I ([3]; pH 4.7, 8 hr): 77.2% | % of Unconverted Compounds of Formula I ([3]; pH 6.0, 0 hr): 100% | % of Unconverted Compounds of Formula I ([3]; pH 6.0, 2 hr): 94.1% | % of Unconverted Compounds of Formula I ([3]; pH 6.0, 4 hr): 100% | % of Unconverted Compounds of Formula I ([3]; pH 6.0, 6 hr): 100% | % of Unconverted Compounds of Formula I ([3]; pH 6.0, 8 hr): 98.4% | % of Unconverted Compounds of Formula I ([3]; pH 7.4, 0 hr): 100% | % of Unconverted Compounds of Formula I ([3]; pH 7.4, 2 hr): 88.0% | % of Unconverted Compounds of Formula I ([3]; pH 7.4, 4 hr): 82.8% | % of Unconverted Compounds of Formula I ([3]; pH 7.4, 6 hr): 82.5% | % of Unconverted Compounds of Formula I ([3]; pH 7.4, 8 hr): 82.4%

CCc1c2c(nc3ccc(O)cc13)-c1cc3c(c(=O)n1C2)COC(=O)[C@]3(O)CC [SN-38]
protein bound in plasma [4]: About 96% | Solubility in water [1]: Practically insoluble in water | % Remaining in tumor lysate ([5]; 0 h): 100.0% | % Remaining in tumor lysate ([5]; 1 h): 94.9% | % Remaining in tumor lysate ([5]; 2 h): 90.7% | % Remaining in tumor lysate ([5]; 4 h): 100.1% | % Remaining in tumor lysate ([5]; 6 h): 88.9% | % Remaining in tumor lysate ([5]; 8 h): 91.4%
